In patent publication US11981658B2, “Substituted aminopyridine compounds as EGFR inhibitors” (YUHAN CORPORATION, priority 2021, dated 2024):
Like-named read-outs stand apart in the source and are kept apart here.

Key:
EGFR L858R/T790M/C797S = EGFR L858R/T790M/C797S (Homo sapiens, UniProt P00533, C797S/L858R/T790M); assay: Biochemical EGFR kinase inhibition assay (Lance Ultra TR-FRET), triple mutant L858R/T790M/C797S
Outline: (§1)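 Enzyme reactions lasted 1 hour at room temperature with test compounds between 0.003 and 10 μM, followed by 10 mM EDTA quench.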

EGFR L858R/C797S = EGFR L858R/C797S (Homo sapiens, UniProt P00533, C797S/L858R); assay: Biochemical EGFR kinase inhibition assay (Lance Ultra TR-FRET), double mutant L858R/C797S
Chain of EGFR L858R/C797S (P00533 25-1210 C797S/L858R): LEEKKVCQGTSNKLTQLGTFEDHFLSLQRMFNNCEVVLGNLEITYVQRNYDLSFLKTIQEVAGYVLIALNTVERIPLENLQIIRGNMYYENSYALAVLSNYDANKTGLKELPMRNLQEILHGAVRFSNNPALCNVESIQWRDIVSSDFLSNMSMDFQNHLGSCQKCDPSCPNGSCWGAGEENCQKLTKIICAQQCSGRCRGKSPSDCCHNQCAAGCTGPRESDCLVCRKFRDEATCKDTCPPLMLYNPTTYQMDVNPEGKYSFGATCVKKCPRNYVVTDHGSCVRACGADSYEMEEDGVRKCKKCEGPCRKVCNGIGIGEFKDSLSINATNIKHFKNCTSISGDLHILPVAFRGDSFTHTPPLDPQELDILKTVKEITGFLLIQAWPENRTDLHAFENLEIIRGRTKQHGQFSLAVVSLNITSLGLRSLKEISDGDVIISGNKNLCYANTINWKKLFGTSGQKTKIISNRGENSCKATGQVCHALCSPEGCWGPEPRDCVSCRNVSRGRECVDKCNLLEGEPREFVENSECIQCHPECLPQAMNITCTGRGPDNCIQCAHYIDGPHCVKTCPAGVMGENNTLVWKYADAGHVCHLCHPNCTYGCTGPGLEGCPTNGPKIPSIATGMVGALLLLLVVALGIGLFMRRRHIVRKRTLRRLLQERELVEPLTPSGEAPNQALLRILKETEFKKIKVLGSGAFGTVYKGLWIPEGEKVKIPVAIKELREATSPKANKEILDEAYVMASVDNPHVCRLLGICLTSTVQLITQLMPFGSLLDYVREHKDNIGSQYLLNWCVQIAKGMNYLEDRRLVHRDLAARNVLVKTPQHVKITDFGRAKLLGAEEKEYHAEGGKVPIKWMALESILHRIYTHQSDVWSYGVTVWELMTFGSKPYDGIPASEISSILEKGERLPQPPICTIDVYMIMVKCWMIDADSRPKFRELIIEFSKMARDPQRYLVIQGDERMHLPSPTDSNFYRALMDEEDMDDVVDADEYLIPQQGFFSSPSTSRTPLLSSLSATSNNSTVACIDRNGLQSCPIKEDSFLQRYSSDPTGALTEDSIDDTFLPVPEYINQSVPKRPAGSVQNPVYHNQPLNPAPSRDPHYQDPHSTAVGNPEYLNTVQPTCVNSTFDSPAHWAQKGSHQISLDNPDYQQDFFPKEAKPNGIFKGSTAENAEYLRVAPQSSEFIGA
Outline: as §1

EGFR Del19/C797S = EGFR Del19/C797S (Homo sapiens, UniProt P00533, C797S/DEL746-750); assay: Biochemical EGFR kinase inhibition assay (Lance Ultra TR-FRET), double mutant del19/C797S
Outline: as §1

EGFR wildtype (WT) = EGFR wildtype (WT) (Homo sapiens, UniProt P00533); assay: Biochemical EGFR kinase inhibition assay (Lance Ultra TR-FRET), wildtype
Chain of EGFR wildtype (WT) (P00533 25-1210): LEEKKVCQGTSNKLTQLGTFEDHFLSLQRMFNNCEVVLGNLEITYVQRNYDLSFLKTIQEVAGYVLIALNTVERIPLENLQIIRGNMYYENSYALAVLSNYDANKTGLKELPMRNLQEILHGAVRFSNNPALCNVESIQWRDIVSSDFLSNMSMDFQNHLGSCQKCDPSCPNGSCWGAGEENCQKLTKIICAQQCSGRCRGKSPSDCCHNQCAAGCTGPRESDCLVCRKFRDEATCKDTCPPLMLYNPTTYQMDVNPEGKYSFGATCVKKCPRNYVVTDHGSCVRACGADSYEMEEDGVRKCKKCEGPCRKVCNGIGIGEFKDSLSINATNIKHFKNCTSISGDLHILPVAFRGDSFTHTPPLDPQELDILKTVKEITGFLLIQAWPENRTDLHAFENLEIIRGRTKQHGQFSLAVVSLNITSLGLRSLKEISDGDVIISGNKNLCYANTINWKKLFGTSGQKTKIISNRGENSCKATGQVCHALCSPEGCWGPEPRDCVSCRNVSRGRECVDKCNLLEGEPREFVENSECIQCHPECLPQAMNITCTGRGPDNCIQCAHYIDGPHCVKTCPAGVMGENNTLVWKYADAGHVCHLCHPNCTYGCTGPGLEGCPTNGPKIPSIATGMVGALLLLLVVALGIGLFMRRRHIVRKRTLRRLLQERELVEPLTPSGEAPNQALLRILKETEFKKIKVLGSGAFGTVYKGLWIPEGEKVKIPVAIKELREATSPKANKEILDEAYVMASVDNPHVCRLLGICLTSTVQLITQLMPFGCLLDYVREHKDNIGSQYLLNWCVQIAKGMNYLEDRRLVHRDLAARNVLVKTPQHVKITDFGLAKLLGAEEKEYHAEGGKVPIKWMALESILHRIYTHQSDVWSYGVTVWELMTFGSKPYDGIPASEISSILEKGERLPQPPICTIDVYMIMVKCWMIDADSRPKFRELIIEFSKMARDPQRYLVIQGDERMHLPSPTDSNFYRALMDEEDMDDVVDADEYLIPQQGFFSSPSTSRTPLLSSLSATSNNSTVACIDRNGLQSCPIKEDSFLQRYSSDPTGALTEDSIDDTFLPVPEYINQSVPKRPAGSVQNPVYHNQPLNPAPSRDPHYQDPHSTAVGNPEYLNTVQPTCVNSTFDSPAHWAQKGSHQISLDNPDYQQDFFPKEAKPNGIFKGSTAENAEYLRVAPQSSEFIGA
Outline: as §1

EGFR Del19/T790M/C797S = EGFR Del19/T790M/C797S (Homo sapiens, UniProt P00533, C797S/DEL746-750/T790M); assay: Biochemical EGFR kinase inhibition assay (Lance Ultra TR-FRET), triple mutant del19/T790M/C797S
Chain of EGFR Del19/T790M/C797S (P00533 with tags, fused parts or gaps DEL746-750/T790M/C797S): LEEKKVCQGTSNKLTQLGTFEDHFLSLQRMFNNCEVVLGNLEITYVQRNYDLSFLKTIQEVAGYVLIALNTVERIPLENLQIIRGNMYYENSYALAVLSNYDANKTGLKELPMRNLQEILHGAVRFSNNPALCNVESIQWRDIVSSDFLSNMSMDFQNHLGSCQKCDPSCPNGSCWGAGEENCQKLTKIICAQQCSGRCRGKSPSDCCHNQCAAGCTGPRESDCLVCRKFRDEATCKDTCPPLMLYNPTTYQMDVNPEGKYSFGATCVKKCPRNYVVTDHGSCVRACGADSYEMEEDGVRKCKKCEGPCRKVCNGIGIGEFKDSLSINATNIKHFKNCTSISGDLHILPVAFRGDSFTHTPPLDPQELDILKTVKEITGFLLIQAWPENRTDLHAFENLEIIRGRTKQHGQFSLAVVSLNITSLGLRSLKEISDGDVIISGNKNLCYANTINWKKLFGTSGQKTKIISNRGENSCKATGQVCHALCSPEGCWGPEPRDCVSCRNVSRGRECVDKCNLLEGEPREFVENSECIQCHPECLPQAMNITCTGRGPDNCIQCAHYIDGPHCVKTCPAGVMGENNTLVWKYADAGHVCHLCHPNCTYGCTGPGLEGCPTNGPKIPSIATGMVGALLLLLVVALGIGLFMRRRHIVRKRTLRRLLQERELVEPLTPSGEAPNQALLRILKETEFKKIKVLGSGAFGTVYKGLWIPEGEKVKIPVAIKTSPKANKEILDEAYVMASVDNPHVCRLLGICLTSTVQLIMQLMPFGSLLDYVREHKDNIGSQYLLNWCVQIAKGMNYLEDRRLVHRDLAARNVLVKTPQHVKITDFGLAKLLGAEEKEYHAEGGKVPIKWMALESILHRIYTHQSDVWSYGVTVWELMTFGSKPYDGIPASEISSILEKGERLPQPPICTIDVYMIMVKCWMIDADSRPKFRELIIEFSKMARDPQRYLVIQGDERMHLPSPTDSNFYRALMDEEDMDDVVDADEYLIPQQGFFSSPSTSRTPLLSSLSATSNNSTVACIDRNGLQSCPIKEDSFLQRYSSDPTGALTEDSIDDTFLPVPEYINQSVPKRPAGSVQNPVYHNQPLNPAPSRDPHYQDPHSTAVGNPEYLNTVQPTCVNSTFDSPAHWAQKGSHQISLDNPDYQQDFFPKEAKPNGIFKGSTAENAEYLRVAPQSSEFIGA
Outline: as §1

[1] = IC50 L858R/T790M/C797S (nM), 100 μM ATP
[2] = Km ATP, read-out: IC50 L858R/T790M/C797S (nM), Km ATP
[3] = IC50 L858R/C797S (nM), 100 μM ATP
[4] = Km ATP, read-out: IC50 L858R/C797S (nM), Km ATP
[5] = IC50 Del19/C797S (nM), 100 μM ATP
[6] = Km ATP, read-out: IC50 Del19/C797S (nM), Km ATP
[7] = Km ATP, read-out: IC50 WT (nM), Km ATP
[8] = IC50 Del19/T790M/C797S (nM), 100 μM ATP
[9] = Km ATP, read-out: IC50 Del19/T790M/C797S (nM), Km ATP

Chain of EGFR L858R/T790M/C797S (P00533 25-1210 T790M/C797S/L858R): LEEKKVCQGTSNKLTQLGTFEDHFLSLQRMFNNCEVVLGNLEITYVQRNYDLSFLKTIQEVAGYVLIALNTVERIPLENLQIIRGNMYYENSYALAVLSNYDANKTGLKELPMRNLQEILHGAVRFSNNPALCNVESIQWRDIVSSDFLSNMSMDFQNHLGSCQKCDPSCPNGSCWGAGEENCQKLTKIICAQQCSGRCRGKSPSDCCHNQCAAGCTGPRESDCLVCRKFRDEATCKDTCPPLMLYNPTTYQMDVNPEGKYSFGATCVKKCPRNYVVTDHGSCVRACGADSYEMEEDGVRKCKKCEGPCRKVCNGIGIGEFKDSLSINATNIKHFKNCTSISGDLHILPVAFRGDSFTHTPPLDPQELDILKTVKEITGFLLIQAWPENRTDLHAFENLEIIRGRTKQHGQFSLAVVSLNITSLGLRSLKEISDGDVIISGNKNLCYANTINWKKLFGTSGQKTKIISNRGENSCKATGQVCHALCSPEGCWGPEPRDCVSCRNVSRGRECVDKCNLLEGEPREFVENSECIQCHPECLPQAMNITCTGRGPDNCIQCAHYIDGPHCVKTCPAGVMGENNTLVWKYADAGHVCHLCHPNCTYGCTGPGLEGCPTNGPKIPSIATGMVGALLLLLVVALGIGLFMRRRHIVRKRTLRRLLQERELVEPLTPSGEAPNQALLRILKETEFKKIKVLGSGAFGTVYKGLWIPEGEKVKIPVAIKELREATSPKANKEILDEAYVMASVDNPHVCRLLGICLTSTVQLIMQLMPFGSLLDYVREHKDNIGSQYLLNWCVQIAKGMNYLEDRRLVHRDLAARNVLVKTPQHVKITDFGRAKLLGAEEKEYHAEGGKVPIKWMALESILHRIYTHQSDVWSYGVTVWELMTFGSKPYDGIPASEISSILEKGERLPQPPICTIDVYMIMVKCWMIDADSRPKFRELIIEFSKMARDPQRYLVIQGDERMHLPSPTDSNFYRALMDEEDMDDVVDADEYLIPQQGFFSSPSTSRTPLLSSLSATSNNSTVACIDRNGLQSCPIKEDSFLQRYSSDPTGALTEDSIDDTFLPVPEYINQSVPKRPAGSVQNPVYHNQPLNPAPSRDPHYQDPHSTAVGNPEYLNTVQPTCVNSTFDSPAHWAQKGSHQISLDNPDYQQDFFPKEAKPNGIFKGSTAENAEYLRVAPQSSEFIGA

Structure (SMILES)	IC50 (EGFR L858R/T790M/C797S; [1])	IC50 (EGFR L858R/T790M/C797S; [2])	IC50 (EGFR L858R/C797S; [3])	IC50 (EGFR L858R/C797S; [4])	IC50 (EGFR Del19/C797S; [5])	IC50 (EGFR Del19/C797S; [6])	IC50 (EGFR wildtype (WT); IC50 WT (nM), 100 μM ATP)	IC50 (EGFR wildtype (WT); [7])	IC50 (EGFR Del19/T790M/C797S; [8])	IC50 (EGFR Del19/T790M/C797S; [9])
CC1(O)CCN(c2cc(Nc3ccnc(-c4cnn(S(=O)(=O)C5CC5)c4)n3)ncc2C#CC2CCO[C@H]2C(F)(F)F)CC1 (stereo partly drawn) [Example 417, 1-(2-((2-(1-(Cyclopropylsulfonyl)-1H-pyrazol-4-yl)pyrimidin-4-yl)amino)-5-(((2R)-2-(trifluoromethyl)tetrahydrofuran-3-yl)ethynyl)pyridin-4-yl)-4-methylpiperidin-4-ol]	2.6 nM	0.8 nM	157 nM	30.7 nM	7.9 nM	7 nM	> 10000 nM	96.1 nM	1.6 nM	1.5 nM
CN(C)CC1(C)CCN(c2cc(Nc3ccnc(-c4cnn(S(=O)(=O)C5CC5)c4)n3)ncc2C#CC2CCO[C@H]2C(F)(F)F)CC1 (stereo partly drawn) [Example 418, 2-(1-(Cyclopropylsulfonyl)-1H-pyrazol-4-yl)-N-(4-(4-((dimethylamino)methyl)-4-methylpiperidin-1-yl)-5-(((2R)-2-(trifluoromethyl)tetrahydrofuran-3-yl)ethynyl)pyridin-2-yl)pyrimidin-4-amine]	2.3 nM	–	235 nM	–	10.1 nM	–	> 10000 nM	–	1.1 nM	–
CN(C)CCC1CCN(c2cc(Nc3ccnc(-c4cnn(S(=O)(=O)C5CC5)c4)n3)ncc2C#CC2CCO[C@H]2C(F)(F)F)CC1 (stereo partly drawn) [Example 419, 2-(1-(Cyclopropylsulfonyl)-1H-pyrazol-4-yl)-N-(4-(4-(2-(dimethylamino)ethyl)piperidin-1-yl)-5-(((2R)-2-(trifluoromethyl)tetrahydrofuran-3-yl)ethynyl)pyridin-2-yl)pyrimidin-4-amine]	1.5 nM	0.4 nM	97.5 nM	7.1 nM	4.8 nM	3.9 nM	> 10000 nM	31 nM	1 nM	1.1 nM
O=S(=O)(C1CC1)n1cc(-c2nccc(Nc3cc(NC4CCC(O)CC4)c(C#CC4CCOC4C(F)(F)F)cn3)n2)cn1 [Example 420, (1s,4s)-4-((2-((2-(1-(Cyclopropylsulfonyl)-1H-pyrazol-4-yl)pyrimidin-4-yl)amino)-5-(((2R)-2-(trifluoromethyl)tetrahydrofuran-3-yl)ethynyl)pyridin-4-yl)amino)cyclohexan-1-ol]	2.3 nM	0.5 nM	119 nM	12.6 nM	6.9 nM	6.4 nM	> 10000 nM	52.7 nM	1.3 nM	1.6 nM
CC1(CO)CCN(c2cc(Nc3ccnc(-c4cnn(S(=O)(=O)C5CC5)c4)n3)ncc2C#CC2CCO[C@H]2C(F)(F)F)CC1 (stereo partly drawn) [Example 421, (1-(2-((2-(1-(Cyclopropylsulfonyl)-1H-pyrazol-4-yl)pyrimidin-4-yl)amino)-5-(((2R)-2-(trifluoromethyl)tetrahydrofuran-3-yl)ethynyl)pyridin-4-yl)-4-methylpiperidin-4-yl)methanol]	2.3 nM	0.8 nM	117 nM	17.2 nM	5.8 nM	4 nM	> 10000 nM	35.1 nM	1.8 nM	1.5 nM
O=S(=O)(C1CC1)n1cc(-c2nccc(Nc3cc(N[C@H]4CC[C@@H](CO)CC4)c(C#CC4C[C@@H]5CC[C@@H]4O5)cn3)n2)cn1 (stereo partly drawn) [Example 422, ((1s,4s)-4-((5-((7-Oxabicyclo[2.2.1]heptan-2-yl)ethynyl)-2-((2-(1-(cyclopropylsulfonyl)-1H-pyrazol-4-yl)pyrimidin-4-yl)amino)pyridin-4-yl)amino)cyclohexyl)methanol]	0.5 nM	0.4 nM	59.4 nM	3.2 nM	2.6 nM	2.6 nM	6510 nM	10.5 nM	0.4 nM	0.9 nM
O=S(=O)(C1CC1)n1cc(-c2nccc(Nc3cc(NC[C@H]4CC[C@H](O)CC4)c(C#CC4CC5CCC4O5)cn3)n2)cn1 (stereo partly drawn) [Example 423, (1r,4r)-4-(((5-((7-Oxabicyclo[2.2.1]heptan-2-yl)ethynyl)-2-((2-(1-(cyclopropylsulfonyl)-1H-pyrazol-4-yl)pyrimidin-4-yl)amino)pyridin-4-yl)amino)methyl)cyclohexan-1-ol]	3.2 nM	–	1770 nM	–	105 nM	–	> 10000 nM	–	1.2 nM	–
CC1(O)CCN(c2cc(Nc3ccnc(-c4cnn(S(=O)(=O)C5CC5)c4)n3)ncc2C#CC2CC3CCC2O3)CC1 (stereo not drawn) [Example 424, 1-(5-((7-Oxabicyclo[2.2.1]heptan-2-yl)ethynyl)-2-((2-(1-(cyclopropylsulfonyl)-1H-pyrazol-4-yl)pyrimidin-4-yl)amino)pyridin-4-yl)-4-methylpiperidin-4-o 1]	0.3 nM	0.2 nM	47.7 nM	1.9 nM	2.4 nM	2 nM	5450 nM	8.8 nM	0.2 nM	0.3 nM
O=S(=O)(C1CC1)n1cc(-c2nccc(Nc3cc(NC[C@H]4CC[C@H](CO)CC4)c(C#CC4CC5CCC4O5)cn3)n2)cn1 (stereo partly drawn) [Example 425, ((1r,4r)-4-(((5-((7-Oxabicyclo[2.2.1]heptan-2-yl)ethynyl)-2-((2-(1-(cyclopropylsulfonyl)-1H-pyrazol-4-yl)pyrimidin-4-yl)amino)pyridin-4-yl)amino)methyl)cyclohexyl)methanol]	5.4 nM	–	1820 nM	–	120 nM	–	> 10000 nM	–	2.5 nM	–
O=S(=O)(C1CC1)n1cc(-c2nccc(Nc3cc(N[C@H]4CC[C@@H](O)CC4)c(C#CC4C[C@@H]5CC[C@@H]4O5)cn3)n2)cn1 (stereo partly drawn) [Example 427, (1s,4s)-4-((5-((7-Oxabicyclo[2.2.1]heptan-2-yl)ethynyl)-2-((2-(1-(cyclopropylsulfonyl)-1H-pyrazol-4-yl)pyrimidin-4-yl)amino)pyridin-4-yl)amino)cyclohexan-1-ol]	0.3 nM	0.2 nM	80.1 nM	3.2 nM	2.4 nM	2.7 nM	> 10000 nM	12 nM	0.2 nM	0.3 nM
O=S1(=O)CCC(C#Cc2cnc(Nc3ccnc(-c4cnn(S(=O)(=O)C5CC5)c4)n3)cc2NC2CCC(CO)CC2)C1 (stereo not drawn) [Example 428, 3-((6-((2-(1-(Cyclopropylsulfonyl)-1H-pyrazol-4-yl)pyrimidin-4-yl)amino)-4-(((1s,4s)-4-(hydroxymethyl)cyclohexyl)amino)pyridin-3-yl)ethynyl)tetrahydrothiophene 1,1-dioxide]	0.2 nM	0.1 nM	28.5 nM	4.9 nM	1.9 nM	4 nM	> 10000 nM	18.6 nM	0.5 nM	0.1 nM
CC1(O)CCN(c2cc(Nc3ccnc(-c4cnn(S(=O)(=O)C5CC5)c4)n3)ncc2C#CC2CCS(=O)(=O)C2)CC1 (stereo not drawn) [Example 429, 3-((6-((2-(1-(Cyclopropylsulfonyl)-1H-pyrazol-4-yl)pyrimidin-4-yl)amino)-4-(4-hydroxy-4-methylpiperidin-1-yl)pyridin-3-yl)ethynyl)tetrahydrothiophene 1,1-dioxide]	0.3 nM	0.2 nM	39.7 nM	4.8 nM	3.4 nM	4.9 nM	6020 nM	38.9 nM	0.5 nM	0.2 nM
